# From patent US7579353B2, “Pyridinone derivatives against malaria” (Glaxo Group Limited, priority 2005, dated 2009)
# Where two headings read alike, the source gives them in different places.
# Assays:
# Plasmodium falciparum = assay: In vitro anti-malarial activity against Plasmodium falciparum, IC50 assay / [3H]-hypoxanthine incorporation assay; assay type: cell-based; settings: Erythrocyte, parasitized red blood cells, 48 hours
# [1] = Compound solubility determination (gross and equilibrium solubility; FaSSIF, FeSSIF, pH 7.4 PBS, pH 1.0 0.1N HCl, pH 4.5 sodium citrate); assay type: physicochemical; settings: thermodynamic from solid
# Protocol: Compound Solubility Determination
# An amount of 3 mg solid compound with LC-MS purity ≧95% was required. This amount was split between 3 different glass vials (1.8 ml volume each), placing 1 mg compound into each one.
# Organic solvents of HPLC grade were used. Ultra pure water (Milli-Q grade) was used. Buffers were prepared with ultra pure water and filtered using 0.45μ cameo filters. The compositions of each solvent employed in this assay are described below (part III).
# 2. Determination of Equilibrium Solubility (Assuming Chemical Stability in the Desired Solvent is not a Problem).
# For each of the three vial samples prepared as described above, in which the amount of compound was totally dissolved, the following procedure was subsequently carried out: • a) A small amount (approx. 0.1 mg) of additional solid compound was added to the vial to maintain an excess of the compound in the mixture in the form of undissolved solid. • b) The samples were magnetically stirred for 24 hr. If required, additional solid compound (0.1 mg) was added to maintain excess of it and then the samples were stirred again. • c) Then the samples were filtered (Millipore Milex filters nylon 0.2 um) and three aliquots were taken (one from each of the three vials) and analysed by LC-MS. • d) The pH of the final solution in each sample was measured with a pH-meter (WTW pH330i and a pH-electrode Sentix 41).
# 3. LC-MS Assay for Analytical Quantification
# All filtered aliquots were analysed by LC-MS. The analysis was carried out with a Luna 5 μC18 (2) column 4.6×150 mm, using a HP1100 HPLC instrument interfaced with a Waters ZMD-2000 MS spectrometer. The concentration of the final sample as prepared above was calculated from that of a reference calibration curve obtained from serial dilutions of a 2 mM solution of the compound under investigation in DMSO (Aldrich cat. ref.: 27685-5) stock solution.
# The analysis of all LC-MS data was performed with MassLynx 3.4 software. Statistical and graphic analysis of data was performed using Microsoft Excel. The concentration (uM) and solubility (ug/ml) for each compound was calculated using the peak areas from the sample and those from the calibration curve.
# A) FaSSIF is a solvent which simulates the Fasted State of the Intestinal Fluid. (FaSSIF: Fasted State Simulated Intestinal Fluid).
# B) FeSSIF is a solvent which simulates the Fed State of the Intestinal Fluid. (FeSSIF: Fed State Simulated Intestinal Fluid).
# C) Solubility at pH 7.4 was determined in phosphate buffered saline (PBS) (Fluka cat. ref: 79383)
# D) Solubility at pH 1.0 was determined in 0.1N HCl solution (Scharlau AL0744010C)
# E) Solubility at pH 4.5 was determined in sodium citrate 0.5M solution. (Aldrich 25, 127-5)
# [2] = 0.1N HCl solution, simulated gastric fluid, pH 1 (HCl), read-out: Solubility at pH 1 (HCl)
# [3] = FaSSIF (fasted state simulated intestinal fluid), fassif, read-out: Solubility in FaSSIF
# [4] = phosphate buffered saline (PBS), aqueous buffer, pH 7.4 (PBS), read-out: Solubility at pH 7.4 (PBS)
# [5] = sodium citrate 0.5M solution, aqueous buffer, pH 4.5 (Na citrate), read-out: Solubility at pH 4.5 (Na citrate)
Compound,IC50 (Plasmodium falciparum),"solubility at 24 h [1, 2]","solubility at 24 h [1, 3]","solubility at 24 h [1, 4]","solubility at 24 h [1, 5]","solubility at 24 h ([1]; FeSSIF (fed state simulated intestinal fluid), fessif, read-out: Solubility in FeSSIF)"
"Cc1[nH]c(C)c(-c2ccc(-c3ccccc3F)nc2)c(=O)c1Br [Example 23, 5-Bromo-6′-(2-fluorophenyl)-2,6-dimethyl-3,3′-bipyridin-4(1H)-one]",< 0.125 µg/mL,≥ 50 µg/mL,1 to 5 µg/mL,1 to 5 µg/mL,5 to 10 µg/mL,–
"CCCCc1ccc(-c2ccc(-c3c(C)[nH]c(C)c(Br)c3=O)cn2)cc1 [Example 26, 5-Bromo-6′-(4-n-butylphenyl)-2,6-dimethyl-3,3′-bipyridin-4(1H)-one]",< 0.125 µg/mL,10 to 50 µg/mL,10 to 50 µg/mL,< 1 µg/mL,< 1 µg/mL,–
"Cc1[nH]c(C)c(-c2ccc(-c3cccc(C(F)(F)F)c3)nc2)c(=O)c1Br [Example 17, 5-Bromo-2,6-dimethyl-6′-{3-[trifluoromethyl]phenyl}-3,3′-bipyridin-4(1H)-one]",< 0.125 µg/mL,≥ 50 µg/mL,1 to 5 µg/mL,< 1 µg/mL,< 1 µg/mL,–
"Cc1[nH]c(C)c(-c2ccc(CCc3ccc(C(F)(F)F)cc3)nc2)c(=O)c1Cl [Example 45, 5-Chloro-2,6-dimethyl-6′-{2-[4-(trifluoromethyl)phenyl]ethyl}-3,3′-bipyridin-4(1H)-one]",< 0.125 µg/mL,≥ 50 µg/mL,10 to 50 µg/mL,5 to 10 µg/mL,10 to 50 µg/mL,–
"Cc1[nH]c(C)c(-c2ccc(-c3ccc(F)cc3)nc2)c(=O)c1Cl [Example 36, 5-Chloro-6′-(4-fluorophenyl)-2,6-dimethyl-3,3′-bipyridin-4(1H)-one]",< 0.125 µg/mL,≥ 50 µg/mL,1 to 5 µg/mL,1 to 5 µg/mL,1 to 5 µg/mL,–
"Cc1[nH]c(C)c(-c2ccc(CCc3cccc(C(F)(F)F)c3)nc2)c(=O)c1Cl [Example 44, 5-Chloro-2,6-dimethyl-6′-{2-[3-(trifluoromethyl)phenyl]ethyl}-3,3′-bipyridin-4(1H)-one]",< 0.125 µg/mL,≥ 50 µg/mL,10 to 50 µg/mL,1 to 5 µg/mL,10 to 50 µg/mL,–
"Cc1[nH]c(C)c(-c2ccc(-c3ccccc3Cl)nc2)c(=O)c1Br [Example 21, 5-Bromo-6′-(2-chlorophenyl)-2,6-dimethyl-3,3′-bipyridin-4(1H)-one]",< 0.125 µg/mL,≥ 50 µg/mL,5 to 10 µg/mL,1 to 5 µg/mL,5 to 10 µg/mL,–
"Cc1[nH]c(C)c(-c2ccc(-c3ccc(Cl)cc3)nc2)c(=O)c1Br [Example 19, 5-Bromo-6′-(4-chlorophenyl)-2,6-dimethyl-3,3′-bipyridin-4(1H)-one]",< 0.125 µg/mL,10 to 50 µg/mL,1 to 5 µg/mL,1 to 5 µg/mL,1 to 5 µg/mL,5 to 10 µg/mL
"CCCCCCCc1ccc(-c2c(C)[nH]c(C)c(Cl)c2=O)cn1.Cl [Example 48, 5-Chloro-6′-(n-heptyl)-2,6-dimethyl-3,3′-bipyridin-4(1H)-one]",< 0.125 µg/mL,≥ 50 µg/mL,10 to 50 µg/mL,1 to 5 µg/mL,≥ 50 µg/mL,–
"Cc1[nH]c(C)c(-c2ccc(-c3ccc(F)cc3)nc2)c(=O)c1Br [Example 22, 5-Bromo-6′-(4-fluorophenyl)-2,6-dimethyl-3,3′-bipyridin-4(1H)-one]",< 0.125 µg/mL,≥ 50 µg/mL,1 to 5 µg/mL,1 to 5 µg/mL,1 to 5 µg/mL,–
